The values below are quoted from earlier work in publication PMC4844938 (Molecules and Cells, 2016).

As usually defined, the Kd is a measure of binding affinity in units of concentration.

The test system of the data set is RANKL. The following applies: ref Ta et al., 2010.

With “1-YC WNSDCECCYRR-13 (bicyclic or more) [L3-3]”, the “affinity for RANKL relative to OP3-4” value (previous work) is recorded as “higher affinity for RANKL as compared to OP3-4”. For the same substance, the Kd (read-out: Kd for RANKL, reported in previous work) was 17.3 µM.
